Data taken from PMC11304238, “Formulate Adaptive Biphasic Scaffold via Sequential Protein‐Instructed Peptide Co‐Assembly” (Advanced Science, 2024).
Where a SMILES comes first, the peptide text is derived from it. [ ]: non-standard residue; d: D form. The star is where a group is joined. Acetyl(2-naphthyl) = O=C(Cc1ccc2ccccc2c1)*; pY = N[C@@H](Cc1ccc(OP(=O)(O)O)cc1)C(=O)O

What was measured:
hMSCs [1] = test: hMSC biocompatibility (viability, caspase 3/7, Ki67); type: cell-based, human; details: 3-day treatment at various concentrations (25 to 500 µM), basal medium, WST-1 viability, caspase 3/7 and Ki67 at 200 µM, n = 3
Experimental: (§1) Cells were seeded onto a 96‐well flat‐bottom tissue culture plate (Corning, Falcon) at a density of 0.5 × 10^4 cells cm^−2 and incubated overnight to facilitate cell adhesion. The medium was then replaced with osteogenic medium containing various peptide compounds at concentrations ranging from 25 to 500 µM. As a control, cells were cultured in osteogenic medium supplemented with an equal volume of PBS. Subsequently, the cells were cultured for an additional 72 h, after which their viability was assessed using a WST‐1 assay kit (Roche Diagnostics, IN).
Figure S12. Chemical structure of peptide P6.
Figure S13. Chemical structure of peptide P7.
Figure S14. 3-day hMSCs viability upon the treatment of peptides P1, P2, P3, and control peptides P5, 1:1 mixture of P6/P7 at various concentrations in basal medium (mean ± SD, n = 3).
Figure S15. Bright field images and fluorescence images of hMSCs upon the treatment of peptides P1, P2, P3, and control peptides P5, 1:1 mixture of P6/P7 at 200 µM in basal medium for 3 days and stained with caspase 3/7 (green). […]
Figure S16. (a) Fluorescence images of hMSCs upon the treatment of peptides P1, P2, P3, and control peptides P5, 1:1 mixture of P6/P7 at 200 µM in basal medium for 3 days and co-stained with hochest (blue) and Ki67 (red). […] (b) Quantification of Ki67 positive ratio in hMSCs upon the treatments of panel a (mean ± SD, n = 3). […]

hMSCs [2] = type: cell-based, human; details: hMSCs pre-cultured 3 days with P3, P5 or P6/P7 (200 µM), then 3 days P4 at various concentrations, osteogenic medium, n = 3
Experimental: as §1
Figure S22. […]
(§2) Figure S23. Bright field images and fluorescence images of hMSCs upon the treatment of peptides P3, P5, and mixture of P6/P7 at a concentration of 200 µM for 3 days, followed with another 3-day treatment of P4 at a concentration of 200 µM in osteogenic medium. ‘Undifferentiated’ represents cell cultured in basal medium; ‘Ctrl’ represents cell cultured in osteogenic medium upon the treatment of 1xPBS buffer. […]
as §2, with “S24. (a) Fluorescence” for “S23. Bright field images and fluorescence”

Row | Compound | biocompatibility with hMSCs (hMSCs [1]) | cytotoxicity of P4 on pre-cultured hMSCs (hMSCs [2])
1 | O=C(Cc1ccc2ccccc2c1)N[C@@H](Cc1ccccc1)C(=O)N[C@@H](Cc1ccccc1)C(=O)O [P5, NapFF] | good biocompatibility | 
2 | CC[C@H](C)[C@H](NC(=O)[C@H](CC(C)C)NC(=O)[C@H](CC(C)C)NC(=O)[C@H](CCCCN)NC(=O)[C@@H](NC(=O)[C@H](Cc1ccccc1)NC(=O)[C@H](Cc1ccccc1)NC(=O)[C@H](Cc1ccccc1)NC(=O)[C@H](CCCNC(=N)N)NC(=O)[C@H](CO)NC(=O)[C@H](CCCNC(=N)N)NC(=O)[C@@H](N)CCCCN)[C@@H](C)CC)C(=O)O [P3, KRSRFFFIKLLI] (H-KRSRFFFIKLLI-OH) | good biocompatibility | 
3 | O=C(O)CC[C@H](NC(=O)[C@H](Cc1ccc(OP(=O)(O)O)cc1)NC(=O)[C@H](Cc1ccccc1)NC(=O)[C@H](Cc1ccccc1)NC(=O)Cc1ccc2ccccc2c1)C(=O)O [P4, NapFFYpE] ({Acetyl(2-naphthyl)}-FF[pY]E-OH) |  | no cytotoxicity
